Measured values as given in patent US5380651A, “Method of determining odorant compounds and antagonists of odorants using a primary culture of olfactory neurons” (The Johns Hopkins University, priority 1993, dated 1995).
“Also recorded” adds a separate entry of the source.

Assays:
[1] = tested on: olfactory neurons (primary cultures); assay: effect of substrate matrix substances on morphology and plating efficiency of olfactory neurons; assay type: cell-based, rat; conditions: for plating efficiency / process (neurite) outgrowth: coated slides, phase contrast and anti-vimentin immunofluorescence
Procedure: To determine the role of substrate matrix substances on plating efficiency and on cellular selection, a number of different substrates were tested.
Two chamber slides were pretreated in a number of ways. For laminin coating, 1 ml of MDV containing 25 ug/ml laminin was plated onto glass two-chamber slides overnight at 37° C.; before use, the slides were rinsed with MDV. For fibronectin, slides were treated with a solution containing 1 ml of MDV containing 20 ug/ml fibronectin (Collaborative Research), incubated overnight at 37° C., and rinsed with MDV prior to use. For polyornithine (PORN, Sigma Chemicals), a solution at a concentration of 1 mg/ml PORN in deionized distilled water was added to slides, incubated 1 hr at 37° C., rinsed twice with deionized distilled water, and rinsed once with MDV prior to use. When laminin was used on PORN-treated slides, slides were treated with PORN and then laminin in the usual manner. Coating of slides with poly-D-lysine was performed analogous to treatment with polyornithine. Heparan sulfate was diluted in MDV to a concentration of 10 ug/ml and 1 ml was placed on a slide, maintained overnight at 37° C., and rinsed with deionized distilled water prior to use. Collagen (Gibco) or collagen IV (Collaborative Research) was prepared as a 50 ug/ml solution in deionized distilled water and 1 ml of this solution utilized per slide. In the case of collagen, the solution was allowed to air dry. Collagen IV was maintained overnight at room temperature, aspirated, air dried and then rinsed twice with deionized distilled water prior to use. When laminin was used with collagen IV, collagen IV was prepared as described, and laminin was subsequently added in the usual manner. Matrigel (Collaborative Research) was utilized according to manufacturer's instructions.
Primary cultures were prepared as describe above and plated onto a number of different substrates and examined by phase contrast as well as immunofluorescence with antivimentin antisera (FIG. 6).
Matrigel was also examined as a substrate (FIG. 7).

NG-108 cells = assay: cyclic AMP levels (RIA) in NG-108 cells exposed to odorant; assay type: cell-based; conditions: similar treatment
[2] = tested on: Primary olfactory neurons; assay: cyclic AMP levels (RIA) in primary olfactory neurons exposed to odorant; assay type: cell-based, rat; conditions: 10 uM IBMP
From the text: Olfactory tissue from neonatal rats was collected, minced, dissociated in enzymes and plated on chamber slides pretreated with laminin as described below.
Approximately 3 litters or 28-32 pups were used per prep. The 2-3 day old rat pups were sacrificed by decapitation, and olfactory tissue dissected and immediately placed in modified Eagle's medium (MEM) containing 4.8 g/l of HEPES buffer, designated MEM-AIR. The turbinates were transferred twice through fresh MEM-AIR to minimize contamination. Tissue was then centrifuged at 700×g for 7 min. After the supernatant was decanted, the tissue was minced to achieve tissue fragments of approximately 1 mm in size, resuspended in MEM-AIR and centrifuged at 700×g for 7 min. Tissue was then placed in 30 ml of MEM-AIR containing 1% (w/v) BSA, RIA grade (Sigma, St. Louis, Mo.), 1 mg/ml hyaluronidase (Sigma), 50 ug/ml DNAse (Sigma), 1 mg/ml collagenase (Worthington Biochemicals, Freehold, N.J.), and 5 mg/ml dispase (Boehringer-Mannheim Biochemicals, Indianapolis, Ind.), and incubated with agitation for 1 hr at 37° C. At the end of incubation, the cell suspension was triturated 10 times with a 10 ml plastic piper and passed through a 150 micron wire mesh. The cell suspension was then centrifuged at 500×g for 5 min. […]

[3] = tested on: olfactory neurons (primary cultures); assay: effect of NGF on olfactory neuron survival and neurite extension; assay type: cell-based, rat
Procedure: Approximately 3 litters or 28-32 pups were used per prep. The 2-3 day old rat pups were sacrificed by decapitation, and olfactory tissue dissected and immediately placed in modified Eagle's medium (MEM) containing 4.8 g/l of HEPES buffer, designated MEM-AIR. The turbinates were transferred twice through fresh MEM-AIR to minimize contamination. Tissue was then centrifuged at 700×g for 7 min. After the supernatant was decanted, the tissue was minced to achieve tissue fragments of approximately 1 mm in size, resuspended in MEM-AIR and centrifuged at 700×g for 7 min. Tissue was then placed in 30 ml of MEM-AIR containing 1% (w/v) BSA, RIA grade (Sigma, St. Louis, Mo.), 1 mg/ml hyaluronidase (Sigma), 50 ug/ml DNAse (Sigma), 1 mg/ml collagenase (Worthington Biochemicals, Freehold, N.J.), and 5 mg/ml dispase (Boehringer-Mannheim Biochemicals, Indianapolis, Ind.), and incubated with agitation for 1 hr at 37° C. At the end of incubation, the cell suspension was triturated 10 times with a 10 ml plastic piper and passed through a 150 micron wire mesh. The cell suspension was then centrifuged at 500×g for 5 min. The supernatant was aspirated and the cell pellet resuspended in plating medium composed of modified Eagle's medium containing D-valine (MDV, Gibco, Grand Island, N.Y.) containing 15% (v/v) dialyzed fetal calf serum (dFCS, Gibco), 5% (v/v) NU serum (Collaborative Research, Bedford, Mass.), 10 uM cytosine arabinoside (ara C) and 25 ng/ml nerve growth factor (NGF, Collaborative Research). After resuspension, cells were successively filtered through 50 micron and 10 micron nylon mesh filters (Small Parts, Miami, Fla.), to remove any remaining undigested clumps of cells and epithelial cells. Cells were plated at a density of 1×10^6 cells per cm^2 into tissue culture dish (Falcon, Lincoln Park, N.J.) or Labtek tissue culture slides (Nunc, Naperville, Ill.) coated with MDV containing laminin at 25 ug/ml (Collaborative Research). Cultures were placed in a humidified 37° C. incubator receiving 5% CO2. […]

[4] = without NGF vs 25 ng/ml NGF, by 3 days in culture

laminin
plating efficiency [1]: optimal plating efficiency
neurite extension and aggregation of cells ([1]; duplicate cell suspensions, laminin vs matrigel): cells extend neurites in a random fashion, with no tendency to reaggregate

collagen
plating efficiency [1]: somewhat better plating efficiency than poly-D-lysine, polyornithine or heparan-sulfate
process (neurite) outgrowth [1]: process outgrowth is still stunted

COc1nccnc1CC(C)C [IBMP, 2-isobutyl-3-methoxypyrazine]
change of cyclic AMP levels (NG-108 cells): does not alter cyclic AMP levels
change of intracellular cyclic AMP levels [2]: rapid, transient rise in intracellular cyclic AMP levels

fibronectin
process (neurite) outgrowth [1]: the processes are shorter

B1: NGF: nerve growth factor (NGF, Collaborative Research) (protein, UniProt P01139 122-241, looked up)
Beta-nerve growth factor: SSTHPVFHMGEFSVCDSVSVWVGDKTTATDIKGKEVTVLAEVNINNSVFRQYFFETKCRASNPVESGCRGIDSKHWNSYCTTTHTFVKALTTDEKQAAWRFIRIDTACVCVLSRKATRRG
modifications: Beta-nerve growth factor
role in olfactory neuronal survival and neurite extension ([3]; 25 ng/ml NGF in medium): necessary for survival of olfactory neurons; also recorded: affects both olfactory neuronal survival and neurite extension in culture
decrease of cell viability in cells maintained without NGF [3, 4]: approximately 85%
process extension in cells maintained without NGF [3, 4]: lose process extension
